Results from patent publication US20050192308A1 (priority 2001, published 2005).

Target: Mu opioid receptor (Homo sapiens, UniProt P35372)
Sequence (P35372 whole entry): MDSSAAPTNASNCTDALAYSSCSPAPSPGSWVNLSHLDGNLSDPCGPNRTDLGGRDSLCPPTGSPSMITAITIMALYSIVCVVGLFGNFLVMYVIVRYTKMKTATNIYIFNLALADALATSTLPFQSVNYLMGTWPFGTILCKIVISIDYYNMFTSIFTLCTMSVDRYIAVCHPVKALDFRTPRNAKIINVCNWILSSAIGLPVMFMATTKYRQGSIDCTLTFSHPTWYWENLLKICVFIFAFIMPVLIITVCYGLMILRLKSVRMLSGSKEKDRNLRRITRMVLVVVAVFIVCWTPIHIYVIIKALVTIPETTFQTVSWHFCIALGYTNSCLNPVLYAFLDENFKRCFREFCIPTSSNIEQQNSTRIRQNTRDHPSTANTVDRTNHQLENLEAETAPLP

SMILES: C[C@@H](NC(=O)[C@@H](N)Cc1ccc(O)cc1)C(=O)NCC(=O)N(C)[C@@H](Cc1ccccc1)C(=O)NCCO [DAMGO Control, DAMGO]
- Functional GTPgS Mu Efficacy % DAMGO: 100 ± 0%
